“Also recorded” adds a separate entry of the source.
Key:
[1] = target: delta-5-desaturase (D5D, gene name: FADS1) (Homo sapiens, UniProt O60427); details: as described in Obukowicz et al. (1998) / Miyahisa et al. (2016); cited from earlier work
IMR-90 [2] = experiment: Cell counts and light microscopy of senescent vs nonsenescent IMR-90 treated with T3364366 in 10% or 0.2% FBS; assay type: cell-based; details: 72 hours; for FBS dependence of cell killing: 10% FBS vs 0.2% FBS, normalized to 0 dose groups
Method: (§1) IMR-90 were induced to senesce via 10 Gy of ionizing radiation [SEN(IR)] and cultured for 7 days, followed by treatment with the indicated doses of T3364366 in the presence of 10% FBS (to provide PUFAs). Nonsenescent (NonSEN) cells served as a control. After 72 hours, cell numbers were counted and normalized to DMSO treatments.
Cells from FIG. 10 were visualized by light microscopy, allowing visualization of the cytotoxic properties of T334366 at various doses. (see, e.g., FIG. 11).
as §1, with “(which provides PUFAs and growth factors) (FIG. 12, panels A and B—red line, squares) or 0.2% FBS (FIG. 12, panel B—purple line, circles) (which induces quiescence, but limits the ability of cells to synthesize DGLA).” for “(to provide PUFAs).”, “the 0 dose treatment groups.” for “DMSO treatments.”

[3] = target: T1, delta-6-desaturase (FADS2/D6D) (Homo sapiens, UniProt O95864); details: as described in Obukowicz et al. (1998); cited from earlier work
T1 sequence (O95864 1-444): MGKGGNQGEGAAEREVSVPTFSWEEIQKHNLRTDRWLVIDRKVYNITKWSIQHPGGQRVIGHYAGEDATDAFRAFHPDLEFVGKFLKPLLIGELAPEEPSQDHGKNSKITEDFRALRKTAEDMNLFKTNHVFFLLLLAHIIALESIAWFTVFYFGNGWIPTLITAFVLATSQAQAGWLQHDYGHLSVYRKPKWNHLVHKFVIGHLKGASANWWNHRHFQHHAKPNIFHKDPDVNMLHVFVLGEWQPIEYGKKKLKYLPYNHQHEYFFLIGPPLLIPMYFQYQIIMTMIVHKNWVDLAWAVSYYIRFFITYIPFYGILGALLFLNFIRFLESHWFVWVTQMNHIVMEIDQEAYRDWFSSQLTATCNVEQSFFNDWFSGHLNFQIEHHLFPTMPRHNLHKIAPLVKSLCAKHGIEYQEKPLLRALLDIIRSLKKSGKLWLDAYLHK

IMR-90 [4] = experiment: Cell counts of senescent vs nonsenescent IMR-90 treated with CP 24,879 plus sub-toxic DGLA; assay type: cell-based; details: 11.75 μM CP 24,879 in the presence of 10 μM DGLA; 72 hours; SEN(IR) vs NonSEN
Method: as §1, with “11.75 μM CP 24,879 or vehicle (DMSO)” for “the indicated doses of T3364366”, “a sub-toxic concentration of DGLA (10 μM).” for “10% FBS (to provide PUFAs).”

[5] = system: senescent cells [SEN(IR)]; experiment: Cleaved caspase 3 immunofluorescence (apoptosis) after DGLA with NS-398 or DMSO; assay type: cell-based; details: 25 micromolar DGLA with DMSO or NS-398; stained cells relative to DAPI positive nuclei
Method: (§2) Cells were treated as in FIG. 5. NS≡Non-senescent proliferating, SEN(IR)=IR-induced senescence, treated with 25 micromolar DGLA and either DMSO or NS-398. Panel A) Percent survival was calculated by cell counts relative to cells treated without DGLA. Panel B) Cells were stained for cleaved caspase 3 by immunofluorescence and expressed as stained cells relative to DAPI positive nuclei.

IMR-90 fibroblasts = experiment: DGLA toxicity to senescent vs mock-irradiated IMR-90 fibroblasts, light microscopy; assay type: cell-based; details: IMR-90 mock-irradiated or 10Gy IR, 10 days later 50 micromolar DGLA for 2 days
Method: (§3) IMR-90 fibroblasts were either mock-irradiated (Mock) or irradiated with 10Gy of ionization radiation (IR) to induce senescence. 10 days later, cells were cultured in the presence of either vehicle (media plus FBS carrier) or 50 micromolar DGLA for 2 days. Cells were then photographed using light microscopy.
as §3, with “To evaluate the effect of DGLA on senescent cells, IMR-90” for “IMR-90”, “senescence. Ten” for “senescence. 10”, “days later” for “days later,”

p16-positive cells [6] = experiment: Senescence-associated beta-galactosidase staining of epididymal fat and liver of aged P16-3MR mice; assay type: in vivo; details: P16-3MR mice aged 22 months; gavage 400 mg/kg for 5 consecutive days; tissues five days after final gavage
Method: P16-3MR mice were aged for 22 months, and gavaged with 400 mg/kg of DGLA ethyl ester or vehicle (phosal 50) for 5 consecutive days. Five days after the final gavage, epididymal fat and liver tissues were isolated and stained for senescence-associated beta-galactosidase.

[7] = system: senescent cells [SEN(IR)]; experiment: COX-2 dependence of DGLA killing of senescent cells (NS-398 or DMSO), light microscopy and cell counts; assay type: cell-based; details: SEN(IR) vs non-senescent; NS-398 (COX-2 inhibitor) or DMSO for 10 days, then 25 micromolar DGLA for 2 days
Method: Cells were either irradiated [SEN(IR)] or mock irradiated (non-senescent or “NonS”) and cultured continuously for 10 days in the presence of either NS-398 (a COX-2 inhibitor) or DMSO (vehicle). Cells were then treated with either carrier (BSA) or DGLA (25 micromolar) for 2 days, and images were captured by light microscopy.
as §2
Since DGLA is converted to non-toxic arachidonic acid by D5D in most normal cells (Nakamura & Nara (2004) Annu. Rev. Nutr. 24: 345-376), the combination of gain of COX-2 and loss of D5D in senescent cells makes this an exploitable weakness. […] Its derivatives, the 1-series prostaglandins (PGX1's) are largely anti-inflammatory, and therefore may also have positive effects in the context of sterile inflammation associated with aging, so-called “inflammaging” (Franceschi & Campisi (2014) J. Gerontol. A Biol. Sci. Med. Sci. 69 (Suppl 1): S4-9).

p16-positive cells [8] = experiment: p16 promoter luminescence in aged P16-3MR mice before and after DGLA ethyl ester gavage; assay type: in vivo; details: P16-3MR mice aged 22 months; gavage 400 mg/kg for 5 consecutive days; measured two days after final gavage
Method: P16-3MR mice were aged for 22 months and luminescence (p16 promoter activity) was measured by luminometry (panel A). Mice were then gavaged with 400 mg/kg of DGLA ethyl ester or vehicle (phosal 50) for 5 consecutive days. Two days after the final gavage, luminescence was again measured (panel B). Six total mice were measured for luminescence and plotted before and after DGLA treatment (panel C).

Sequence of delta-5-desaturase (D5D, gene name: FADS1) (O60427 whole entry, species assumed): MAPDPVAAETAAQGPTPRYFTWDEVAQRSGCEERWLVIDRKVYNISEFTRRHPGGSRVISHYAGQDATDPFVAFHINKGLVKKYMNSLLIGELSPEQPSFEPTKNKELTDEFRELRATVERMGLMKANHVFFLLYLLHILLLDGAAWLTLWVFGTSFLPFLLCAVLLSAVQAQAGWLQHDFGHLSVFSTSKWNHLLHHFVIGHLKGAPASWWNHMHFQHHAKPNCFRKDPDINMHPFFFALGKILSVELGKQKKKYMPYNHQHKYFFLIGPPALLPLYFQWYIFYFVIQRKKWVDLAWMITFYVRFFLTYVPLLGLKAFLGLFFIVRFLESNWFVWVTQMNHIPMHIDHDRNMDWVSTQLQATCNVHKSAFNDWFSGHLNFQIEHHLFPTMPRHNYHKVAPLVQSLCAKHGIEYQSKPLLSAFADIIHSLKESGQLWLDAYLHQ

In the case of CC(=O)NCCSc1nc2cscc2c(=O)n1-c1ccc(OCC(F)(F)F)cc1 [Compound T3364366, N-[2-[[3,4-Dihydro-4-oxo-3-[4-(2,2,2-trifluoroethoxy)phenyl]thieno[3,4-d]pyrimidin-2-yl]thio]ethyl]acetamide], the “inhibition of delta-5-desaturase” value [1] is given as “specific inhibitor of delta-5-desaturase”, the “FBS dependence of cell killing” value (IMR-90 [2]) is given as “only kills senescent cells in the presence of FBS” and the “FBS dependence of cell killing” value (IMR-90 [2]; listed as T334366) is given as “FBS-dependent killing of senescent cells”. For the same compound, the “killing of senescent cells (cell numbers normalized to DMSO)” value (IMR-90 [2]; indicated doses, 10% FBS, SEN(IR) vs NonSEN) was “selectively kills senescent cells”.
In the case of CC(C)CCOc1ccc(N)cc1.Cl [CP 24,879, 4-(3-methylbutoxy)-benzenamine, monohydrochloride], the “inhibition of delta-6-desaturase” value [3] is listed as “inhibitor of both delta-5- and delta-6-desaturase”, the “inhibition of delta-5-desaturase” value [1] is listed as “inhibitor of both delta-5- and delta-6-desaturase” and the “killing of senescent cells (cell numbers normalized to DMSO)” value (IMR-90 [4]) is listed as “selectively kills senescent cells”.
In the case of CCCCC/C=C\C/C=C\C/C=C\CCCCCCC(=O)O [DGLA, dihomo-gamma-linolenic acid], the “apoptosis in senescent cells (cleaved caspase 3), COX-2 dependence” value [5] is reported as “induces apoptosis in senescent cells in a COX-2-dependent manner”, the “toxicity to senescent cells” value (IMR-90 fibroblasts) is reported as “selectively toxic to senescent cells” and the “senescence-associated beta-galactosidase in epididymal fat and liver tissues” value (p16-positive cells [6]) is reported as “less senescence-associated beta-glactodsidase was observed”. The “killing of senescent cells, COX-2 dependence” value [7] was “selectively toxic to senescent cells in a COX-2 dependent manner; also recorded: kills senescent cells in a COX-2-dependent manner”.
In the case of CCCCC/C=C\C/C=C\C/C=C\CCCCCCC(=O)OCC [DGLA ethyl ester], the “burden of p16-positive cells (luminescence, p16 promoter activity)” value (p16-positive cells [8]) is reported as “lowers the burden of p16-positive cells” and the “senescence-associated beta-galactosidase in epididymal fat and liver tissues” value (p16-positive cells [6]) is reported as “lowers the burden of p16-positive cells”.
